Columns and labels:
FKBP12 = FKBP12 (Homo sapiens, UniProt P62942); experiment: Ki test procedure: inhibition of peptidyl-prolyl isomerase (rotamase) activity, chymotrypsin-coupled assay; assay type: biochemical; settings: apparent Ki
Source text: The inhibition of the prolyl peptidyl cis-trans isomerase activity of FKBP may be measured as an indicator of this affinity.
Inhibition of the peptidyl-prolyl isomerase (rotamase) activity of the compounds used in the inventive methods and pharmaceutical compositions can be evaluated by known methods described in the literature (Harding et al., Nature, 1989, 341:758-760; Holt et al. J. Am. Chem. Soc., 115:9923-9938).
The cis-trans isomerization of an alanine-proline bond in a model substrate, N-succinyl-Ala-Ala-Pro-Phe-p-nitroanilide, is monitored spectrophotometrically in a chymotrypsin-coupled assay, which releases para-nitroanilide from the trans form of the substrate. The inhibition of this reaction caused by the addition of different concentrations of inhibitor is determined, and the data is analyzed as a change in first-order rate constant as a function of inhibitor concentration to yield the apparent Ki values.
In a plastic cuvette are added […] of ice cold assay buffer (25 mM HEPES, pH 7.8, 100 mM NaCl), […] of FKBP (2.5 mM in 10 mM Tris-Cl pH 7.5, 100 mM NaCl, 1 mM dithiothreitol), […] of chymotrypsin (50 mg/ml in 1 mM HCl) and […] of test compound at various concentrations in dimethyl sulfoxide. The reaction is initiated by the addition of 5 mL of substrate (succinyl-Ala-Phe-Pro-Phe-para-nitroanilide 5 mg/mL in 2.35 mM LiCl in trifluoroethanol).
The absorbance at 390 nm versus time is monitored for 90 seconds using a spectrophotometer and the rate constants are determined from the absorbance versus time data files.

[1] = tested on: retinal ganglion cell axons; experiment: protection of retinal ganglion cell axons from degeneration 14 days after optic nerve transection (RT97); assay type: in vivo; settings: ± SEM
Source text: Efficacy of represetative compounds from different immunophilin ligand series in protecting retinal ganglion cell axons from degeneration following optic nerve transection set forth in Table 9.
Efficacy of representative compounds from different immunophilin ligand series in protecting retinal ganglion cell axons from degeneration following optic nerve transection

Clearance = assay type: in vitro ADME; settings: Table 9 comments

FKBP12, sequence (P62942 whole entry, species assumed): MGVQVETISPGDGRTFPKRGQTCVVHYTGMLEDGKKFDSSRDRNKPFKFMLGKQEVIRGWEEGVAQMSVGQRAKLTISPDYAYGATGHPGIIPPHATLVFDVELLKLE

| Clearance (Clearance) | Molecule | Ki (FKBP12) | RT 97 + RGC axon density 14 days after ON transaction (36 ON axons rescued) [1] |
| --- | --- | --- | --- |
| – | 1,5-Diphenyl-3-pentyl 1-(3,3-dimethyl-1,2-dioxopentyl)-2-piperidinecarbothioate [Compound 40] | 1230 nM | – |
| – | 2-Phenyl-1-ethyl 1-(2-phenyl-1,2-dioxoethyl)-2-piperidinecarbothioate [Compound 14] | 313 nM | – |
| – | 2-Phenyl-1-ethyl 1-(3,3-dimethyl-1,2-dioxopentyl)-2-piperidinecarbothioate [Compound 10] | 12 nM | – |
| – | 2-Phenyl-1-ethyl (2S)-1-(1-cyclopentyl-1,2-dioxoethyl)-2-pyrrolidinecarbothioate [Compound 28] | 108 nM | – |
| – | 2-Phenyl-1-ethyl (2S)-1-(2-cyclohexyl-1,2-dioxoethyl)-2-pyrrolidinecarbothioate [Compound 12] | 442 nM | – |
| – | 3-(1-Naphthyl)-1-propyl 1-(3,3-dimethyl-2-oxopentanoyl)-2-piperidinecarbothioate [Compound 53] | 261 nM | – |
| – | 3-(1-Naphthyl)-1-propyl (2S)-1-(3,3-dimethyl-2-oxopentanoyl)-2-pyrrolidinecarbothioate [Compound 47] | 21 nM | – |
| – | 3-(2-Chlorophenyl)propyl (2S)-1-(3,3-dimethyl-2-oxopentanoyl)-2-pyrrolidinecarbothioate [Compound 61] | 139 nM | – |
| – | 3-(2-Fluorophenyl)propyl (2S)-1-(3,3-dimethyl-2-oxopentanoyl)-2-pyrrolidinecarbothioate [Compound 57] | 57 nM | – |
| – | 3-(3-Chlorophenyl)propyl (2S)-1-(3,3-dimethyl-2-oxopentanoyl)-2-pyrrolidinecarbothioate [Compound 54] | 37 nM | – |
| – | 3-(3-Fluorophenyl)propyl 1-(3,3-dimethyl-2-oxopentanoyl)-2-piperidinecarbothioate [Compound 64] | 163 nM | – |
| – | 3-(3-Fluorophenyl)propyl (2S)-1-(3,3-dimethyl-2-oxopentanoyl)-2-pyrrolidinecarbothioate [Compound 58] | 79 nM | – |
| – | 3-(3-Pyridyl)-1-propyl (2S)-1-(2-cyclohexyl-1,2-dioxoethyl)-2-pyrrolidinecarbothioate [Compound 35] | 62 nM | – |
| – | 3-(para-Methoxyphenyl)-1-propyl 1-(2-phenyl-1,2-dioxoethyl)piperidine-2-carbothioate [Compound 43] | 259 nM | – |
| – | 3-Phenyl-1-propyl 1-(3,3-dimethyl-1,2-dioxobutyl)-2-piperidinecarbothioate [Compound 29] | 59 nM | – |
| – | 3-Phenyl-1-propyl (2S)-1-(2-cyclohexyl-1,2-dioxoethyl)-2-pyrrolidinecarbothioate [Compound 32] | 362 nM | – |
| – | 3-Phenylpropyl 1-(3,3-dimethyl-2-oxopentanoyl)-2-piperidinecarbothioate [Compound 60] | 90 nM | – |
| – | 4,4-Di(para-fluorophenyl)butyl 1-(3,3-dimethyl-2-oxopentanoyl)-2-pyrrolidinecarbothioate [Compound 46] | 757 nM | – |

| Clearance (Clearance) | Molecule | Ki (FKBP12) | RT 97 + RGC axon density 14 days after ON transaction (36 ON axons rescued) [1] |
| --- | --- | --- | --- |
| – | 4-Phenyl-1-butyl 1-(1,2-dioxo-3,3-dimethylbutyl)-2-piperidinecarbothioate [Compound 39] | 347 nM | – |
| – | 4-Phenyl-1-butyl (2S)-1-(2-cyclohexyl-1,2-dioxoethyl)-2-pyrrolidinecarbothioate [Compound 33] | 1700 nM | – |
| – | 4-Phenyl-1-butyl (2S)-1-(3,3-dimethyl-1,2-dioxopentyl)-2-pyrrolidinecarbothioate [Compound 34] | 34 nM | – |
| – | 4-Phenylbutyl 1-(3,3-dimethyl-2-oxopentanoyl)-2-piperidinecarbothioate [Compound 59] | 962 nM | – |
| – | O=C(SCCCc1ccccc1)[C@@H]1CCCN1C(=O)NC12CC3CC(CC(C3)C1)C2 [B] | – | 100.0% ±5.2% SEM |
| – | CCC(C)(C)C(=O)C(=O)N1CCC[C@H]1C(=O)CCCCc1ccccc1 [Compound 1, (2S)-3,3-dimethyl-1-[2-(5-phenylpentanoyl)pyrrolidinyl]pentane-1,2-dione] | 31 nM | – |
| – | CC(C)(C)C(=O)C(=O)N1CCC[C@H]1C(=O)CCCCc1ccccc1 [Compound 3, (2S)-2-(1-oxo-5-phenyl)-pentyl-1-(3,3-dimethyl-1,2-dioxobutyl)pyrrolidine] | 85 nM | – |
| – | CCC(C)(C)C(=O)C(=O)N1CCCC1C(=O)SCc1csc2ccccc12 (stereo not shown) [Compound 11] | 299 nM | – |
| – | CCC(C)(C)C(=O)C(=O)N1CCCC[C@H]1C(=O)SCC(c1ccccc1)c1ccccc1 [Compound 49, 2,2-Diphenylethyl (2S)-1-(3,3-dimethyl-2-oxopentanoyl)-2-piperidinecarbothicate] | 1330 nM | – |
| – | O=C(OCCCc1ccccc1)[C@@H]1CCCCN1S(=O)(=O)Cc1ccccc1 [D] | – | 58.4% ±6.4% SEM |
| 41.8 µL/min | CCC(C)(C)C(=O)C(=O)N1CCCC[C@H]1C(=O)OC(CCc1ccccc1)CCc1ccccc1 [E] | – | 56.6% ±9.4% SEM |
| – | CCC(C)(C)C(=O)C(=O)N1CCS[C@H]1C(=O)OCCCc1cccnc1 [F] | – | 55.1% ±5.9% SEM |
| – | CCC(C)(C)C(=O)C(=O)N1CCCC[C@H]1C(=O)O [G] | – | 34.0% ±4.8% SEM |
| – | CCC(C)(C)C(=O)C(=O)N1CCCC[C@H]1C(N)=O [H] | – | 30.3% ±8.0% SEM |
| 8.0 µL/min | O=C(OCCCc1cccnc1)[C@@H]1CCCN1C(=S)NC1CCCCC1 [I] | – | 23.8% ±5.3 SEM |
| 1.5 µL/min | CCC(C)(C)C(=O)C(=O)N1CCC[C@H]1C(=O)CCCCc1cccnc1 [J] | – | 15.8% ±4.8% SEM |
| 4.5 µL/min | CCC(C)(C)C(=O)C(=O)N1CCCC[C@H]1C(=O)SCCC(c1ccccc1)c1ccccc1 [K] | – | 13.0% ±4.2% SEM |
| 21.9 µL/min | CN(C)C(=O)N1CCC[C@H]1C(=O)SCCCc1ccccc1 [N] | – | – |

| Molecule | Clearance (Clearance) | Ki (FKBP12) | RT 97 + RGC axon density 14 days after ON transaction (36 ON axons rescued) [1] |
| --- | --- | --- | --- |
| O=C(SCCCc1ccccc1)[C@@H]1CCCN1S(=O)(=O)Cc1ccccc1 [C] | 31.1 µL/min | – | 60.4% ±3.1% SEM |
| CCC(C)(C)C(=O)C(=O)N1CCC[C@H]1C(=O)O [L] | 5.2 µL/min | – | 7.8% ±3.0% SEM |
| CCC(C)(C)C(=O)C(=O)N1CCC[C@H]1C(=O)SCCC(c1ccccc1)c1ccccc1 [M] | 12.5 µL/min | – | −6.3% +3.9% SEM |

From patent publication US6384056B1, “Heterocyclic thioesters or ketones for vision and memory disorders” (GPI NIL Holdings, Inc., priority 1998, dated 2002)
